Assays:
Format in all cases: cell-based
Escherichia coli [1] = experiment: Micromax assay of ciprofloxacin-induced DNA fragmentation after a protein synthesis inhibitor (Example 1)
Procedure: As an exemplification of the principals previously described, two strains of Escherichia coli exponentially growing in Mueller-Hinton broth were assayed (FIGS. 1-6). The first strain of Escherichia coli was a TG1 strain susceptible to both the aminoglycoside tobramycin (an inhibitor of protein synthesis) and the quinolone ciprofloxacin (an agent which induces DNA fragmentation by trapping of topoisomerases in DNA) (FIGS. 1-3). The second strain was a clinical isolate resistant to tobramycin and susceptible to ciprofloxacin (FIGS. 4-6). Four treatments were applied to each strain to rapidly distinguish the susceptible and the resistant strain to tobramycin.
One portion of both bacterial strains was incubated with tobramycin at 4 μg/ml for 40 minutes (FIGS. 1 and 4), a dosage indicated by the CLSI as the breakpoint of susceptibility to tobramycin in the standard antibiogram based on microdilution. Another portion of both strains was incubated with ciprofloxacin at 1 μg/ml for 30 min (FIGS. 2 and 5). Still another portion of both strains was incubated with tobramycin at 4 μg/ml for 10 min followed by ciprofloxacin at 1 μg/ml for 30 min, without removing the tobramycin (FIGS. 3 and 6). A final portion was left with no antibiotic.
After each incubation cells were processed using the variant of the Micromax technology to visualize the nucleoids, i.e. bacterial chromosomal DNA, in all the cells of the population. Cells from each culture were immersed in an agarose microgel on a slide and incubated with a specific lysing solution to remove the cell wall in all the cells and release in the microgel the nucleoids contained inside the bacteria. These are dried, stained with a high sensitive fluorochrome for DNA like SYBR Gold and visualized under fluorescence microscopy. FIGS. 1-6 depicts representative images captured under each of the conditions described below.
The above described methodology was employed to rapidly determine the susceptibility of 12 strains of E. coli to tobramycin. One portion of each bacterial strain was incubated with tobramycin at the susceptibility breakpoint dosage, 4 μg/ml, for 40 min. A portion of each strain was incubated with ciprofloxacin at 1 μg/ml for 30 min. Still another portion of each strain was incubated with tobramycin at 4 μg/ml for 10 min followed by ciprofloxacin at 1 μg/ml for 30 min, without removing the tobramycin. A final portion of each strain was left with no antibiotic. E. coli strains were identified as susceptible or not based on the levels of DNA fragmentation in the portion of each strain incubated with ciprofloxacin and the portion incubated with tobramycin and ciprofloxacin.
The principals exemplified in Example 1 were confirmed with the aminoglycoside amikacin. Briefly, a susceptible and resistant strain of E. coli were exposed to similar conditions to those described in Example 1, except that amikacin was utilized as the protein synthesis inhibiting antibiotic. Specifically, each was strain subjected to four treatments. One portion received no antibiotics, and another portion received only a quinolone, such as ciprofloxacin or norfloxacin to induce DNA fragmentation. Still another portion received the protein synthesis inhibiting antibiotic aminoglycoside amikacin, followed by the quinolone. Another portion received only amikacin. A final portion received neither antibiotic.
The principals exemplified in Example 1 were further confirmed with the aminoglycoside gentamicin. Briefly, the rapid test was performed on 15 isolated E. coli strains according to the methodology described above, except that gentamicinin was utilized as the protein synthesis inhibiting antibiotic. Suppressed DNA fragmentation were used to characterize bacterial susceptibility and those characterizations were verified with the standard antibiogram for gentamicin by microdilution. […]

Enterococcus faecalis = experiment: Variant Micromax assay of cell lysis by lysozyme after erythromycin (Example 6)
Procedure: As an example, two strains of Enterococcus faecalis exponentially growing in Mueller-Hinton broth were incubated under four different conditions and then assayed. […] Each strain was subjected to four treatments for the purpose of rapidly distinguishing the susceptible and the resistant strain to erythromycin.
The dose was that indicated by the CLSI as the breakpoint of susceptibility to erythromycin in the standard antibiogram based on microdilution. Another portion of both strains was incubated with lysozyme 1 mg/ml, 10 min at 37° C. […]
(§1) After incubation with lysozyme, the cells were processed using a variant of the Micromax technology to visualize the nucleoids, i.e. spreading of the bacterial chromosomal DNA, in all the cells of the population. Samples from the cultures were immersed in an agarose microgel on a slide and incubated with a specific lysing solution to remove the cell wall in all the cells and release in the microgel the nucleoids contained inside the bacteria. These are dried, stained with a highly sensitive fluorochrome for DNA like SYBR Gold and visualized under fluorescence microscopy.

Pseudomonas aeruginosa [2] = experiment: Variant Micromax assay of cell enlargement by ceftazidime after tobramycin (Example 7); conditions: ceftazidime alone 0.5 μg/ml 60 minutes; both strains
Procedure: As an example, two strains of Pseudomonas aeruginosa exponentially growing in Mueller-Hinton broth were assayed. These strains were both susceptible to the β-lactam ceftazidime, which inhibits peptidoglycan synthesis. One strain was susceptible and the other resistant to the aminoglycoside tobramycin (an inhibitor of protein synthesis). For the purpose of rapidly distinguishing the susceptible and the resistant strain to tobramycin each strain was subjected to four treatments.
A portion of each strain was incubated with tobramycin at 4 μg/ml (the CLSI breakpoint of susceptibility) for 75 minutes. An assay of this portion is depicted at FIGS. 31 and 34. Another portion of each strain was incubated with ceftazidime at 0.5 μg/ml for 60 minutes. An assay of this portion is depicted at FIGS. 32 and 35. Still another portion of both strains was incubated with tobramycin at 4 μg/ml for 15 minutes followed by ceftazidime at 0.5 μg/ml for 60 minutes, without removing the tobramycin. Assays of these strains can be seen at FIGS. 33 and 36, respectively. A final portion of each strain was not treated with either antibiotic.
After incubation with the antibiotics, cells were processed using a variant Micromax technology to visualize the enlargement or not of the bacteria. Samples from each culture were immersed in an agarose microgel on a slide, dried, stained with a high sensitive fluorochrome for DNA like SYBR Gold and visualized under fluorescence microscopy to visualize cell shape and size.

Pseudomonas aeruginosa [3] = experiment: Variant Micromax assay of cell wall damage by meropenem after tobramycin (Example 5); conditions: meropenem alone 0.2 μg/ml 60 min; both strains
Source text: As an exemplification of this principal, FIGS. 19-24 illustrates assays of two strains of Pseudomonas aeruginosa exponentially growing in Mueller-Hinton broth. Both strains were both susceptible to the β-lactam meropenem, which inhibits peptidoglycan synthesis. One strain was susceptible (FIGS. 19-21) and the other resistant (FIGS. 22-24) to the aminoglycoside tobramycin (inhibitor of protein synthesis).
For the purpose of rapidly distinguishing susceptible and resistant (i.e. non-susceptible) strains to tobramycin each strain was subjected to four treatments. A portion of each strain was incubated with tobramycin at 4 μg/ml for 75 min (FIGS. 19 and 22). The dose utilized, was indicated by the CLSI as the breakpoint of susceptibility to tobramycin. FIGS. 20 and 23 illustrate an assay from another portion of each strain, which was incubated with Meropenem at 0.2 μg/ml for 60 min. FIGS. 21 and 24, illustrate assays from still another portion of both strains which was incubated with tobramycin at 4 μg/ml for 15 min followed by meropenem at 0.2 μg/ml for 60 min, without removing the tobramycin. Still another portion of both strains was maintained without the addition of either antibiotic.
After incubation cells were processed using a variant Micromax technology to visualize the affectation or not of the cell wall based on the release or not of the nucleoids contained inside the bacteria. In the same manner described previously, samples from cells from the culture are immersed in an agarose microgel on a slide and incubated with a specific lysing solution that removes the cell wall only in those bacteria whose peptidoglycan was affected, thus releasing in the microgel the nucleoids contained inside. […] The processed bacteria in microgel are dried, stained with a high sensitive fluorochrome for DNA like SYBR Gold and visualized under fluorescence microscopy.

Staphylococcus aureus = experiment: Micromax assay of DNA fragmentation by DNase released with lysostaphin after azithromycin (Example 3); conditions: lysostaphin alone 10 μg/ml 1 min; both strains
Procedure: In an exemplification of this principal, two strains of S. aureus growing in Mueller-Hinton agar with 5% sheep blood were assayed. One strain was susceptible to the macrolide azithromycin (an inhibitor of protein synthesis) (FIGS. 13-15) and the other strain was a clinical isolate resistant to azithromycin (FIGS. 16-18). The purpose was to rapidly distinguish susceptible and non-susceptible strains to azithromycin. Cultures were processed direct from standard growing agar plates 18-24 h and it was not necessary the cells being exponentially growing previously to the assay.
Each of these strain was subjected to four treatments. One portion of both strains was incubated with azithromycin at 2 μg/ml for 120 min; 2 μg/ml being indicated by the CLSI as the breakpoint of susceptibility to azithromycin. The cells were then lysed to release nucleoids and images of FIGS. 13 and 16 were generated. Another portion of each strain was incubated with lysostaphin at 10 μg/ml for 1 min. FIGS. 14 and 17 depict the nucleoids released in each strain for this treatment. Still another portion was incubated with Azithromycin at 2 μg/ml for 120 min followed by lysostaphin at 10 μg/ml for 1 min, without removing the azithromycin. The assays for these treatments can be seen at FIGS. 15 and 18. A final portion was left without either antibiotic.
After the incubation, the cells were processed using the variant of a Micromax technology to lyse cells with affected cell walls. As indicated previously, samples from cells from the culture are immersed in an agarose microgel on a slide and incubated with a specific lysing solution to remove the cell wall in those cells affected by lysostaphin and release in the microgel the nucleoids contained inside the bacteria. These are dried, stained with a highly sensitive fluorochrome for DNA like SYBR Gold and visualized under fluorescence microscopy.

Escherichia coli [4] = experiment: Micromax assay of mitomycin C-induced DNA fragmentation after tobramycin (Example 2); conditions: mitomycin C alone 50 μg/ml 60 min; both strains
Procedure: FIGS. 7-9 depict a TG1 strain susceptible to the aminoglycoside tobramycin, an inhibitor of protein synthesis, and mitomycin C, an agent which induces DNA damage. The other strain illustrated in FIGS. 10-12 was a clinical isolate resistant to tobramycin.
One portion of both bacterial strains was incubated with tobramycin at 4 μg/ml for 90 min (FIGS. 7 and 10), a dosage indicated by the CLSI as the breakpoint of susceptibility to tobramycin in the standard antibiogram based on microdilution. Another portion of both strains was incubated with mitomycin C at 50 μg/ml for 60 min (FIGS. 8 and 11). Still another portion of both strains was incubated with tobramycin at 4 μg/ml for 30 min followed by mitomycin C at 50 μg/ml for 60 min, without removing the tobramycin (FIGS. 9 and 12). A final portion was left with no antibiotic.
as §1, with “incubation,” for “incubation with lysozyme, the”, “visualize” for “visualize the”, “i.e.” for “i.e. spreading of the”, “from cells from” for “from”, “culture are” for “cultures were”, “microscopy, Nucleoids from E. coli obtained using the Micromax assay are represented in FIGS. 7-12, FIGS. 7-9 correspond to a strain susceptible to tobramycin (TG1) and FIGS. 10-12 to a strain resistant to tobramycin.” for “microscopy.”

Escherichia coli [5] = experiment: Variant Micromax assay of cell enlargement by low-dose mitomycin C after tobramycin (Example 8); conditions: mitomycin C alone 0.5 μg/ml 60 minutes; both strains
Procedure: As an example, two strains of Escherichia coli exponentially growing in Mueller-Hinton broth were incubated under four different conditions and then assayed. One strain was susceptible and the other resistant to the aminoglycoside tobramycin (an inhibitor of protein synthesis). For the purpose of rapidly distinguishing susceptible and non-susceptible strains to tobramycin each strain was incubated under four conditions.
A portion of each strain was incubated with tobramycin at 4 μg/ml for 90 minutes. As described previously, this dose is indicated by the CLSI as the breakpoint of susceptibility to tobramycin in the standard antibiogram based on microdilution. Another portion of both strains was incubated in Mitomycin C at 0.5 μg/ml for 60 minutes. Still another portion of each strain was incubated with tobramycin at 4 μg/ml for 30 minutes followed by mitomycin C at 0.5 μg/ml for 60 minutes, without removing the tobramycin. A final portion of both strains was not incubated with either antibiotic.
After the incubation, cells were processed using a variant Micromax technology to visualize any enlargement or not of the bacteria. Samples from cells from the culture were immersed in an agarose microgel on a slide, dried, stained with a highly sensitive fluorochrome for DNA like SYBR Gold and visualized under fluorescence microscopy to visualize cell shape and size. Images were similar those correspondent to the previous figure.

[6] = rapid test, confirmed by microdilution antibiogram, 12 strains for tobramycin, 15 for gentamicin

O=C(O)c1cn(C2CC2)c2cc(N3CCNCC3)c(F)cc2c1=O [ciprofloxacin]
DNA fragmentation of nucleoids (Escherichia coli [1]; ciprofloxacin alone 1 μg/ml 30 min, both strains): nucleoids with extensive fragmented DNA | inhibitory response on lysis by lysozyme (Enterococcus faecalis; incubation with quinolones instead of a protein synthesis inhibitor): has not been obtained

CC(C)(O/N=C(\C(=O)N[C@@H]1C(=O)N2C(C(=O)[O-])=C(C[n+]3ccccc3)CS[C@H]12)c1csc(N)n1)C(=O)O [ceftazidime]
cell enlargement (Pseudomonas aeruginosa [2]): significant cell enlargement

C[C@@H](O)[C@H]1C(=O)N2C(C(=O)O)=C(S[C@@H]3CN[C@H](C(=O)N(C)C)C3)[C@H](C)[C@H]12 [meropenem]
release of nucleoids (cell wall damage) (Pseudomonas aeruginosa [3]): releasing of nucleoids due to affectation of the cell wall

lysostaphin
DNA fragmentation of released nucleoids (Staphylococcus aureus): release of nucleoids with a large extent of DNA fragmentation

gentamicin
E. coli strains identified as non-susceptible (resistant) (Escherichia coli [1]; [6]): 5 | E. coli strains identified as susceptible (Escherichia coli [1]; [6]): 10

lysozyme
partially lysed cells with spreading nucleoid fibers (Enterococcus faecalis; lysozyme 1 mg/ml 10 min at 37° C. and lysing solution, no erythromycin, erythromycin-resistant strain): 97.36% | lysed cells releasing nucleoid fibers (Enterococcus faecalis; lysozyme 1 mg/ml 10 min at 37° C. and lysing solution, no erythromycin, erythromycin-susceptible strain): 92.13%

CO[C@@]12[C@H](COC(N)=O)C3=C(C(=O)C(C)=C(N)C3=O)N1C[C@@H]1N[C@@H]12 [mitomycin C]
DNA fragmentation of nucleoids (Escherichia coli [4]): nucleoids with fragmented DNA in both strains | cell enlargement (Escherichia coli [5]): significant cell enlargement

NCC[C@H](O)C(=O)N[C@@H]1C[C@H](N)[C@@H](O[C@H]2O[C@H](CN)[C@@H](O)[C@H](O)[C@H]2O)[C@H](O)[C@H]1O[C@H]1O[C@H](CO)[C@@H](O)[C@H](N)[C@H]1O [amikacin]
outcome of rapid susceptibility test with another protein synthesis inhibitor (Escherichia coli [1]; inhibitor followed by a quinolone, susceptible and resistant E. coli): successfully determined

— patent US10472663B2, “Procedure for the rapid determination of bacterial susceptibility to antibiotics that inhibit protein synthesis” (ABM TECHNOLOGIES, LLC, priority 2015, dated 2019)
